“Also recorded” adds a separate entry of the source. Read-outs that look alike come from different tables or passages of the source.

Data set [1] relates to MC3T3-E1 cells. As to the kind of experiment: Combinatorial dose of DFM and D(+) glucose, MTS viability, MC3T3-E1. It counts as cell-based, mouse. The settings on record: 5 mM glucose, 24 hours. As for the experimental part:
(§1) Cells that undergo hypoxia mimetic stress mediated by Hif-1α have been reported to increase their metabolic demands. To test how metabolic demands change in cells exposed to DFM, both HUVECs and MC3T3-E1 cells were exposed to 3.2 μM DFM, 5 mM D(+) glucose and a combination of 3.2 μM DFM+5 mM D(+) glucose for 24 hours. A negative control consisted of both cell types without treatment. The viability of cells was determined by MTS viability assay. The purpose of this approach is to determine whether D(+) glucose can be used as an additive in the hydrogel matrix to improve wound healing and help drive vascularization and osteogenesis process.

Data set [2] concerns HUVECs. As to the kind of experiment: Combinatorial dose of DFM and D(+) glucose, MTS viability, HUVECs. In kind it is cell-based, Human. As to conditions: 5 mM glucose, 24 hours. As to the method:
as §1

For data set [3], the system named is MC3T3-E1 cells.
The subject of data set [4] is MC3T3-E1 cells. As to the kind of experiment: Fluorescent microscopy of pre-osteoblasts grown in Ti-6Al-4V foam under DFM. In kind it is cell-based, mouse. As to conditions: 3.2 μM DFM (low concentration), 21 days. As for the experimental part: Pre-osteoblasts seeded on foam structures were cultured for 7 days to test for similar cell behavior as reported by Nune et al. Cells were seeded at 200,000 cells/well in a 12 well plate, 1 mL total media volume and then stained with Hoechst 33342 cell nuclei dye. A second experiment was performed once the appropriate concentration of DFM was selected. Pre-osteoblasts are seeded at the previously described concentration in the same conditions but exposed to 3.2 μM DFM. Proliferation is observed after 21 days exposure. A second stain is performed with Vybrant® CFDA SE Cell Tracer Kit to visually determine the viability of cells without disturbing the layer of cells grown in the foams. Because the scaffold is solid metal, light cannot be transmitted through it if fully dense. However, due to the foam nature of the scaffold, light may be transmitted though the medium and a visible image can be obtained if the metal section is thin enough. Despite the fact that a thin section makes fluorescent microscopy feasible, since the scaffold is 3D, focus is lost in the z axis and there is a lack of clarity for morphological details. Improvements on microscopy can be done by using Confocal Microscopy instead of Fluorescent Microscopy in order to view in more detail cellular morphology and microcapillary formation. […]

The subject of data set [5] is HUVECs. The experiment in a line: Induction of angiogenesis (capillary formation) in Matrigel and in foams with gel. In kind it is cell-based, Human. As for the experimental part: It has been previously reported that MC3T3-E1 pre-osteoblast cells undergo differentiation and proliferation when grown in porous foams in glutamine containing media. It has been extensively reported that endothelial cells are able to form capillaries in gels when exposed to DFM [28]. In this experiment, a live angiogenesis monitoring experiment is performed in order to analyze capillarity maturation and cell survival. This analysis is achieved by staining HUVECs with PHK26 Red Fluorescent Dye (Sigma) and MC3T3-E1 cells with PKH67 Green fluorescent dye (Sigma). Both dyes stain cell membranes in an unspecific way, while maintaining cellular viability for an extended period of time. MC3T3-E1 cells are grown in foams as described above, but under hypoxic conditions (3.2 μM DFM). The Ti-6Al-4V foams are pre-incubated with pre-osteoblasts for a total of 7 days, with a negative hypoxia control being cells without any DFM. The cells grown on the foams and gel are monitored throughout the duration of this experiment. The foams are removed from the wells and placed in a 12 well plate and Matrigel® (Corning Life Sciences) will be added until the foam is completely covered. In order to observe microcapillarity formation upon exposure of HUVECs to DFM, the manufacturer specifications are followed. Briefly, Matrigel® is thawed according to specifications (4° C. overnight) and added to a 24 well cell culture plate and allowed to gelate also according to specifications (30-60 minutes at 37° C.). […] The cell suspension is incubated at 37° C., 5% CO2 for 16 to 18 hours on the Matrigel coated plate for 16-18 hours. The formation of microcapillaries is measured by confocal microscopy.

For data set [6], the system named is HUVECs. As to conditions: cited from earlier work.
Data set [7] has as its system HUVECs. The experiment in a line: Total protein content (Bradford). In kind it is cell-based, Human. As to conditions: endothelial cells exposed to DFM. As to the method: Cells are grown for 6 h, 24 h and 48 h in the presence of DFM at the previously specified 1:5 dilutions. After the desired time periods they are washed with cold 1×PBS and lysed with Radioimmunoprecipitation (RIPA) protein lysis buffer (0.2% Triton X-100+protease inhibitor cocktail) for 30 min in an ice bath. The total protein content in the cells is estimated using the Bradford spectrophotometric protein assay. Briefly, 10 μL of the cell lysate will be mixed with 100 μL of Bradford Reagent (Sigma) and re-suspended to homogenize the solution on a 96 well plate. The absorbance will be measured at 595 nm. A standard plot of absorbance as a function of bovine serum albumin (BSA) concentration will be obtained to determine the concentration value of the experimental and control samples.

For another data set, the system named is Hif-1α. As to the kind of experiment: Western blot analysis of Hif-1α in HUVECs exposed to DFM. It counts as cell-based, Human. As for the experimental part: To further quantify the expression of specific proteins, a western blot analysis is performed for Hif-1α and VEGF165. The western blot analysis was made using the cell lysate previously described. A Sodium Dodecyl Sulfate-Polyacrylamide Gel Electrophoresis (SDS-PAGE) was made (7.5% acrylamide for Hif-1α (93 kDa) and 12% acrylamide for VEGF165 (38 kDa)). The separated proteins are then transferred to a PVDF membrane. The Hif-1α antibody at a 1:1,000 dilution in 1% BSA in 1×TBST buffer was incubated for one hour at room temperature, followed by three 10 min washes with TBST. A secondary anti-rabbit IgG HRP conjugated antibody was incubated for 30 minutes at room temperature, followed also by subsequent washes with TB ST.

In data set [8] the test system is MC3T3-E1 pre-osteoblast cells.
Data set [9] has as its system MC3T3-E1 cells. As to the kind of experiment: Alizarin Red S (ARS) mineralization assay. It counts as cell-based, mouse. From the text:
Because it is expected that pre-osteoblasts differentiate into osteoblasts under a hypoxic condition, cells should mineralize calcium in the ECM. The study of mineralization of ECM can be viewed as a measure or potential for bone formation. In this regard, Alizarin Red Assay (ARS) (Sigma-Aldrich) is used qualitatively and quantitatively to indicate the presence of calcium in the matrix. […] The negative control for this experiment is cells grown in 3D printed foams in complete media with no added glutamate. After incubation, the samples are washed carefully with PBS without disturbing the cell layer and fixed with 4% paraformaldehyde for 30 minutes. The 3D foam structures were then stained with alizarin red (pH˜4.1) in the dark and at room temperature for 30 minutes. Samples are qualitatively studied via light microscope after rinsing with PBS. The calcium nodules should appear red. To conduct quantitative analysis, 10% cetyl pyridinium chloride will be added to remove the alizarin red stain. The absorbance of the solution is measured at 570 nm OD with a spectrophotometric microplate reader.

Turning to `O=C[C@H](O)[C@@H](O)[C@H](O)[C@H](O)CO` [D(+) glucose], the “viability response to additional D(+) glucose” value with MC3T3-E1 cells [1] is reported as “not”; in the data set on HUVECs [2] (compared with MC3T3-E1, listed as D(+) Glucose), “Augments Viability Faster”; with HUVECs [2] (compared with MC3T3-E1, listed as glucose), “more positive response”.
For the compound `CC(=O)N(O)CCCCCNC(=O)CCC(=O)N(O)CCCCCNC(=O)CCC(=O)N(O)CCCCCN.CS(=O)(=O)O` [DFM, Deferoxamine Mesylate], the “cellular proliferation (cell count)” value was “constant cell population numbers, with a slight decrease in numbers” in the data set on MC3T3-E1 cells [3] (24 hour exposure, remaining dilutions, compared to unexposed control); “observable increase in proliferation” with MC3T3-E1 cells [3] (lowest concentrations (3.2 μM and 640 nM)). In the data set on MC3T3-E1 cells [4], the “proliferation of pre-osteoblasts in the foam (Hoechst 33342 staining)” value is on record as “proliferating”. Further, the “maintenance of capillary structure” value in the data set on HUVECs [5] (HUVECs exposed to 2 mM DFM in Matrigel) is on record as “maintain their structure for an extended period of time”. In addition, the “capillary formation in Matrigel” value in the data set on HUVECs [5] (HUVECs exposed to 2 mM DFM, 18 hour period, not apparent in control without DFM) is recorded as “readily formed capillaries; also recorded: HUVECs readily undergo migration to form”. In the data set on HUVECs [5] (Ti-6Al-4V foam + Matrigel with pre-incubated MC3T3-E1, HUVECs treated with 2 mM DFM, FIG. 7), the “vascular structure formation in foams with gel” value was “HUVECs readily undergo migration to form”. For the same compound, the “DFM concentration that can stimulate a survival response” value with HUVECs [6] (previous reports) was approximately 10 µM. The “DFM concentration at which HUVECs undergo angiogenesis” value with HUVECs [6] (previously reported) was “approximately 10 μM”. The “levels of total protein synthesized” value with HUVECs [7] is given as “No obvious changes”. In addition, the “total intracellular Hif-1α bands” value with Hif-1α (48 hours exposure) was “still producing definitive bands”. In addition, the “Hif-1α levels with increasing DFM concentration (summary)” value in the data set with Hif-1α (HUVECs) was “Hif-1α levels increased with increasing DFM”. For the same compound, the Hif-1α expression result with Hif-1α (high doses (2 mM) vs normoxia) is “notably increase”. In addition, the “cellular metabolism (MTS) across drug concentrations” value in data set [8] (24 hours exposure) is on record as “almost no variation in cellular metabolism”. Also, the MTS metabolism result in [8] (exposure equal or longer than 72 hours) is “greatly increases”. Moreover, the “viability at lower concentrations (summary)” value in [8] (lower concentrations) was “E1 cells exposed to DFM. Viability increases”. For the same compound, the “cellular viability (summary)” value in data set [8] (mouse) is “Cellular viability does not decrease in MC3T3-”. Besides, the “cellular production of hydroxyapatite, cells grown in foams” value in the data set on MC3T3-E1 cells [9] (Ti-6Al-4V foams, 3.2 μM DFM) was “enhanced; also recorded: DFM enhances the cellular production of”. Besides, in the data set with MC3T3-E1 cells [9] (foams, 3.2 μM DFM, 14 days), the “synthesis levels of hydroxyapatite versus control” value was “increase on par in both settings”. Further, in the data set on MC3T3-E1 cells [9] (foams, 3.2 μM DFM, 21 days, FIG. 6), the “amount of cellular hydroxyapatite versus control” value is given as “dramatically increases”. For the same compound, in the data set on MC3T3-E1 cells [9] (foams, 3.2 μM DFM, initially (7 days)), the “amount of hydroxyapatite versus control” value was “comparatively similar amounts of hydroxyapatite to control cells”. Further, the “production of mineralized calcium / hydroxyapatite, cells grown in plates” value in the data set on MC3T3-E1 cells [9] (plates) is reported as “increases the production of mineralized calcium; also recorded: DFM enhances the cellular production of”. Further, the “expression of mineralized calcium (ARS)” value in the data set with MC3T3-E1 cells [9] (plates, 640 nM DFM, 21 days, FIG. 5) is listed as “highest expression of mineralized calcium”. Moreover, the “expression of hydroxyapatite compared to control cells” value in the data set with MC3T3-E1 cells [9] (plates, 640 nM DFM, every instance (7, 14, 21 days)) is on record as “always in greater amount”.
Turning to CoCl2, in data set [8], the MTS metabolism result is on record as “greatly increases”, the “cellular metabolism (MTS) across drug concentrations” value is recorded as “almost no variation in cellular metabolism” and the “viability at lower concentrations (summary)” value is “E1 cells exposed to DFM. Viability increases”.

The values are drawn from patent US20180043059A1, “3D Ti-6Al-4V Structures with Hydrogel Matrix” (priority 2016, published 2018).
